The results in this text go back to patent publication US7517998B2, “Non nucleoside reverse transcriptase inhibitors” (priority 2004, dated 2009).

The target in one assay is T1, K103NNY181C mutant reverse transcriptase (Human immunodeficiency virus type 1 group M subtype B, UniProt P04585, K690N/Y768C).
T1 construct: mutations that occur in the reverse transcriptase segment of the pol gene
The experiment in a line: Reverse transcriptase enzymatic assay (PicoGreen), K103N/Y181C mutant RT. The note with it: IC50 mut (nM), mutant (K103N/Y181C) reverse transcriptase, enzymatic assay of Example 24. It counts as biochemical, HIV-1. An outline of the steps: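 PicoGreen fluorescence (ex 485, em 520 nm) quantified product after EDTA stop. Reaction ran 50 min at 37 °C in pH 7.8 Tris/HCl buffer, 1% DMSO, with poly rC/dG15 template-primer (45/4.5 nM), 3.6 μM dGTP, 2.5 nM enzyme; inhibitor 10 μM–0.508 nM final after 15 min room-temperature pre-incubation.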
As a reminder, the IC50 is the midpoint of a concentration-inhibition curve. Read a high IC50 as a need for much substance. The compound `CC(C)(C)c1ccc(-n2nnnc2SCC(=O)Nc2ccc(NC(=O)Cc3ccccn3)cc2Cl)c(Cl)c1` [Compound 7032] showed an IC50 of 30 nM.
The compound `CC(C)(C)c1ccc(-n2nnnc2SCC(=O)Nc2ccc(NC(=O)Cc3ccc([N+](=O)[O-])cc3)cc2Cl)c(Cl)c1` [Compound 7025] displayed a half-inhibitory concentration (IC50) of 154 nM.

Staying with this assay, now noted: IC50 mut, K103N/Y181C mutant reverse transcriptase, enzymatic assay of Example 24.
`CC(C)(C#Cc1ccc(NC(=O)CSc2nnnn2-c2ccc(C3CC3)cc2Cl)c(Cl)c1F)OCCO` [Compound 4169] returned a half-maximal inhibitory concentration (IC50) of 9.2 nM.
`CC(C)(C#Cc1ccc(NC(=O)CSc2nnnn2-c2cc(Cl)ccc2Cl)c(Cl)c1)C(=O)O` [Compound 4162] displayed an IC50 of 99 nM.
In turn, `CC(C)(C#Cc1ccc(NC(=O)CSc2nnnn2-c2ccc(C3CC3)cc2Cl)c(Cl)c1)NC(=O)CN1CCC(C(=O)O)CC1` [Compound 4154] gave an IC50 of 10.5 nM.
Same read-out and setting: with `CC(C)(C#Cc1ccc(NC(=O)CSc2nnnn2-c2ccc(C3CC3)cc2Cl)c(Cl)c1)OCCNC1CCC1` [Compound 4118] the figure was 89.5 nM; with `CN(O)C(=O)COC(C)(C)C#Cc1ccc(NC(=O)CSc2nnnn2-c2ccc(C(C)(C)C)cc2Cl)c(Cl)c1` [Compound 4050], 66 nM.
The compound `CC(=O)NC(C)(C)C#Cc1ccc(NC(=O)CSc2nnnn2-c2ccc(C3CC3)cc2Cl)c(Cl)c1` [Compound 4080] yielded an IC50 of 8.45 nM.
`CC(C)(C#Cc1ccc(NC(=O)CSc2nnnn2-c2ccc(C3CC3)cc2Cl)c(Cl)c1)NC(=O)c1ccccc1` [Compound 4106] had a 50% inhibitory concentration (IC50) of 19 nM.
The same measure, in the same setting: the same measure for `CC(C)(C#Cc1ccc(NC(=O)CSc2nnnn2-c2ccc(C3CC3)cc2Cl)c(Cl)c1)NC(=O)c1cnccn1` [Compound 4111]: 8.6 nM.

The same assay, now with this note: IC50 mut, mutant reverse transcriptase, enzymatic assay of Example 24.
`CC(C)(NC(=O)c1ccc(NC(=O)CSc2nnnn2-c2ccc(C3CC3)cc2Cl)c(Cl)c1)C(=O)O` [Compound 6033] registered a concentration for half-maximal inhibition (IC50) of 298 nM.
With `CC(C)(C)c1ccc(-n2nnnc2SCC(=O)Nc2ccc(-c3ncc[nH]3)cc2Cl)c(Cl)c1` [Compound 3029], the 50% inhibitory concentration (IC50) came to 76 nM.
In the case of `Cc1ccc(-n2nnnc2SCC(=O)Nc2ccc(-c3ccc(CC(=O)O)cc3)cc2[N+](=O)[O-])c(Cl)c1` [Compound 2011], inhibition was half-maximal at 49 nM (IC50).
`COC(=O)Cc1ccc(-c2ccc(NC(=O)CSc3nnnn3-c3ccc(C)cc3Cl)c([N+](=O)[O-])c2)cc1` [Compound 2010] registered an IC50 of 40 nM.
`CC(C)(C)c1ccc(-n2nnnc2SCC(=O)Nc2ccc(OCC(=O)Nc3cccc(O)c3)cc2Cl)c(Cl)c1` [Compound 5011] showed an IC50 of 69 nM.
Take `CC(C)(C)c1ccc(-n2nnnc2SCC(=O)Nc2ccc(-c3ccc(OCCn4ccnc4)cc3)cc2Cl)c(Cl)c1` [Compound 2036]: the half-inhibitory concentration (IC50) is 67 nM.
